This note sets out measurements from patent publication EP0806422A2, “Anti-cataract agent” (Senju Pharmaceutical Co., Ltd., priority 1996, dated 1997).

Test [1] addresses T1, rat lens aldose reductase (Rattus norvegicus, UniProt P07943).
T1 construct: made in house; host or cells: Escherichia coli
The test is described as follows: Enzyme assay: inhibition of aldose reductase, monitored spectrophotometrically as decrease in NADPH absorbance at 340 nm. The format is biochemical. As to conditions: 1x10^-4 M concentration; purified recombinant rat aldose reductase, in vitro; read-out: inhibition rate of aldose reductase. The protocol: The activity of purified recombinant rat aldose reductase (Old SE, Sato S, Kador PF. and Carper DA.: In vitro expression of rat lens aldose reductase in Escherichia coli., Proc. Nat. Acad. Sci. USA, 87:4942-4945, 1990) was assayed by spectrophotometrically monitoring decrease in absorbance of NADPH (reduced nicotinamide adenine dinucleotide phosphate) at 340 nm (Kador PF., Goosey JD., Sharpless NE., Kolish J, and Miller DD.: Stereoscopic inhibition of aldose reductase, European J., Med. Chem. 16: 293-298, 1981).
One enzyme unit was defined as amount of enzyme consuming one micromole of NADPH under the assay conditions.
With reference to 1-N,N-dimethylsulfamoyl-4-(2-pyrimidinyl)piperazine (SRA-1; product of Example 3) and 4-((4-dimethylsulfamoyl)piperazino)-2,6-dimethoxypyrimidine (SRA-2; product of Example 1), their in vitro ability to inhibit rat lens aldose reductase were determined.

The next test deals with Diabetic Rats. The test is described as follows: Cataract formation in streptozotocin-induced diabetic rats, lens changes evaluated by slit lamp. The note with it: 0.06% drug in rat chow; for cataract formation: Figure 1, result of Test Example 2; for cataract formation / onset and severity of sugar cataract formation / progress of lens changes to the vacuole stage: diabetic rats; for Lens changes were observed at: days after injection of streptozotocin, untreated diabetic lens changes began at 21 days; for onset and severity of sugar cataract formation: compared with control chow; for progress of lens changes to the vacuole stage: in untreated diabetic rats vacuoles clearly visible by 35 days. The format is in vivo, Sprague Dawley rats. The protocol: Diabetes was induced in 40 young (60-80 g) Sprague Dawley rats by tail vein injection of 75 mg/kg streptozotocin in Tris-HCl and divided into 3 groups. After 4 days all rats were tested with glucostrips (tail blood), and those with blood sugar levels less than 250 mg % were reinjected with 70 mg/kg streptozotocin dissolved in Tris-HCl.
Drug administration was carried out by adding 0.06% drug to rat chow. The rat chow with added drug was formed by mixing appropriate amounts of each drug with powdered rat chow and then cold pressing the mixture into different size pellets for identification. The rat chow was commercially prepared by BioServe (Frenchtown, N.J.). Subsequently, each compound was dissolved in 500 ml of Tris buffer and mixed with 5 kg of standard rat chow pellets until all liquid was absorbed into the pellets and the wet pellets were dried for 24 hours at 60°C. Rat chow not containing drug was fed to a control group of rats.
Lens changes were evaluated by portable slit lamp at approximately 3-6 day intervals in the diabetic rats. Lens changes were evaluated on a scale at 0 to 3 as follows: 0 clear lens; 1 vacuoles present; 2 cortical opacities; 3 hypermature cataract. The severity of lens changes within the vacuole and cortical stage was further subjectively defined as follows: 1.2 peripheral equatorial vacuoles; 1.4 obvious formation 50% of the lens; 1.6 obvious vacuole formation 50% of lens; 1.8 total lens covered by vacuoles; 2.2 start of cortical changes with posterior capsule still visible by slit lamp; 2.4 advanced cortical opacities covering most of lens; cortical opacity expanded to whole lens; 2.8 total lens is white in appearance.

Regarding `CN(C)S(=O)(=O)N1CCN(c2ncccn2)CC1` [SRA-1, 1-N,N-dimethylsulfamoyl-4-(2-pyrimidinyl)piperazine], the inhibition (in general, the relative decrease from the control value, in per cent) at 100 µM in test [1] came to 5%. In the test with Diabetic Rats, the cataract formation result was “inhibited”; the “Lens changes were observed at” value came to 39 days; the “onset and severity of sugar cataract formation” value is listed as “delayed”; the “progress of lens changes to the vacuole stage” value is listed as “did not progress to the vacuole stage”.

For the molecule `COc1cc(N2CCN(S(=O)(=O)N(C)C)CC2)nc(OC)n1` [SRA-2, 4-((4-dimethylsulfamoyl)piperazino)-2,6-dimethoxypyrimidine], the inhibition at 100 µM in test [1] turned out to be 13%. In the test with Diabetic Rats, the cataract formation result is reported as “inhibited”; the “Lens changes were observed at” value came to 45 days; the “onset and severity of sugar cataract formation” value was “delayed”; the “progress of lens changes to the vacuole stage” value was “did not progress to the vacuole stage”.
